This note sets out measurements from article PMC6321055, “Synthesis of Novel ent-Kaurane-Type Diterpenoid Derivatives Effective for Highly Aggressive Tumor Cells” (Molecules, 2018).

Data set [1] concerns NSCLC-H292. Nature of the data set: MTT cytotoxicity assay, NSCLC-H292. Conditions: Homo sapiens, 24 h, read-out: In vitro cytotoxic activity IC50, NSCLC-H292. (Tetrazolium dyes change colour on reduction, which living cells bring about.)
Procedure: (§1) Cells were purchased from the Wuxi Innovatbio Medicine Technology Co. LTD (Wuxi, China) and were maintained at 37 °C under the atmosphere of 5% CO2. The cells of human non-small lung cancer (H292) and colon cancer cell line (SNU-1040) cells were cultured in RPMI-medium and others (rat myoblasts and HepG2) were cultured in dulbecco′s modified eagle medium (DMEM). 10% fetal bovine serum (Tianhang Biotechnology Co., Ltd., Zhejiang, China) and 1% antibiotics (100 U/mL penicillin and 100 mg/mL streptomycin) was supplemented. Cells are inoculated in 96-well plate and cultured for 24 h. After attached to the culture bottle wall cells were divided cells into three groups, (1) control group; (2) positive control group; (3) experiment group. […] After 24 h, 10% MTT was added and cells were culture for 3.5 h. Then the culture medium was discard and 150 µL DMSO was added. Eventually, after incubation for 10 min by shaking in the dark at room temperature, the absorbance was detected at 490 nm using a microplate reader, and the difference was analyzed by prism 7 software.
In data set [2] the test system is HepG2. Nature of the data set: MTT cytotoxicity assay, HepG2. As to conditions: for IC50: Homo sapiens, HepG2, 24 h, read-out: In vitro cytotoxic activity IC50, HepG2; for SI (selective index, IC50 of normal cells/IC50 of tumor cells): IC50 L6 / IC50 HepG2.
Procedure: as §1
Data set [3] can be described thus: in vitro. Conditions: rat.
Procedure: as §1
Data set [4] has as its system SNU-1040. Nature of the data set: MTT cytotoxicity assay, SNU-1040. As to conditions: Homo sapiens, 24 h, read-out: In vitro cytotoxic activity IC50, SNU-1040.
Procedure: as §1
Data set [5] is described as follows: MTT cytotoxicity assay, L6 normal cells. Conditions: rat, L6 rat myotube cells (normal cells).
Procedure: as §1

What is called IC50 is the midpoint of a concentration-inhibition curve. One may read the melting point as the temperature of the solid-liquid transition. Compound `C=C1C[C@]2(C(=O)OCC)C[C@H]1C(=O)C[C@@H]2C1CC(C)(C)C=CC1=O` (some centres unmarked) [Compound 13] displayed a melting point of 112 to 114.6 °C. Further, in data set [1], the concentration for half-maximal inhibition (IC50) stood at 4440 nM. Moreover, in data set [2], the IC50 was greater than 10000 nM. In addition, the IC50 at 24 h in data set [3] is greater than 10000 nM. Moreover, in data set [4], the half-maximal inhibitory concentration (IC50) was 1410 nM.
Take `C=C1C[C@]2(C(=O)OCC)C[C@H]1C(=O)C[C@H]2C1CC(C)(C)C=CC1=O` (some centres unmarked) [Compound 14]: the melting point was 103.2 to 105.8 °C. Further, the IC50 in data set [1] came out at 2950 nM. Moreover, the IC50 in data set [2] is greater than 10000 nM. Moreover, the concentration for half-maximal inhibition (IC50) at 24 h in data set [3] is greater than 10000 nM. The IC50 in data set [4] stood at 1720 nM.
Turning to `C=C1C(O)[C@]2(C(=O)OCC)C[C@H]1C(=O)C[C@@H]2C1CC(C)(C)C=CC1=O` (some centres unmarked) [Compound 15], the 50% inhibitory concentration (IC50) amounted to 1990 nM in data set [1], 1810 nM in data set [2] and 3130 nM in data set [4]. This compound registered an IC50 at 24 h in data set [3] greater than 10000 nM.
As to `C=C1C(=O)[C@]2(C(=O)OCC)C[C@H]1C(=O)C[C@@H]2C1CC(C)(C)C=CC1=O` (some centres unmarked) [Compound 16], the IC50 is 1690 nM in data set [1], 330 nM in data set [2] and 2440 nM in data set [4]. For the same compound, the “SI (selective index, IC50 of normal cells/IC50 of tumor cells)” value in data set [2] came out at 161.06. The compound further came in with an IC50 at 24 h in data set [3] greater than 10000 nM.
Turning to `C=C1C(O)[C@]2(C(=O)OCC)C[C@H]1C(=O)C[C@H]2C1CC(C)(C)C=CC1=O` (some centres unmarked) [Compound 17], the half-inhibitory concentration (IC50) turned out to be 990 nM in data set [1], 1580 nM in data set [2] and 2820 nM in data set [4]. In addition, the “SI (selective index, IC50 of normal cells/IC50 of tumor cells)” value in data set [2] stood at 47.80. In addition, the IC50 at 24 h in data set [3] is greater than 10000 nM.
On to `C=C1C(=O)[C@]2(C(=O)OCC)C[C@H]1C(=O)C[C@H]2C1CC(C)(C)C=CC1=O` (some centres unmarked) [Compound 18], for which the concentration for half-maximal inhibition (IC50) came to 1350 nM in data set [1], 560 nM in data set [2] and 3010 nM in data set [4]. The same compound returned an IC50 at 24 h in data set [3] greater than 10000 nM.
With `C=C1C(=O)[C@]23C[C@H]1CC[C@H]2[C@@]12CO[C@]3(O)[C@@H](O)[C@@H]1C(C)(C)C=CC2=O` [Eriocalyxin B, reference compound], the IC50 in data set [1] came out at 7110 nM; in data set [2], 2120 nM; in data set [4], 1540 nM. Also, the IC50 at 24 h in data set [5] was greater than 10000 nM.
